According to patent US8372408B2, “Use of Phaeodactylum algae extract for depigmenting the skin” (LVMH Recherche, priority 2007, dated 2013):
Values joined by “and” are separate entries in the source; they are usually repeats but may differ in a detail not shown here. Equal values may be shown once. Residues, ends and D or L forms follow the SMILES beside them. *: point of attachment. Cbz = O=C(OCc1ccccc1)*

Key:
[1] = tested on: tyrosinase in MNT-1 melanocytes; assay: Anti-tyrosinase western blot of treated MNT1 cells, bands quantified; type: cell-based, human; conditions: for amount of tyrosinase, change in words: 24 hours or 72 hours after treatment of MNT-1 melanocytes, FIGS. 4A and 4B; for Quantification of tyrosinase at 24 hours / Quantification of tyrosinase at 72 hours: western blot bands, control = 100 %, palmitic or linoleic acid 25 μM, Phaeodactylum 5 μg/ml, Mg132 120 nM where stated; for Quantification of tyrosinase at 24 hours: MNT1 lyzed at 24 hours; for Quantification of tyrosinase at 72 hours: MNT1 lyzed at 72 hours
Method: (§1) 2.2 Treatment of MNT1 in Order to Assay the Proteasome, the Ubiquitin Proteins and the Tyrosinase by Western Blotting
(§2) 10^6 MNT1 cells/dish 35 mm in diameter, in quadruplicate
(§3) Treatment on D1 • Linoleic acid 25 μM • Palmitic acid 25 μM • Phaeodactylum 5 μg/ml
(§4) +1% bovine serum albumin (BSA)+Vitamin E (Vitamin E) 50 μM+Vitamin C (Vitamin C) 1 mM • Linoleic acid 25 μM • Palmitic acid 25 μM • Phaeodactylum 5 μg/ml
(§5) Preparation of the Lyzates on D2, D3 and D4
(§6) Recovery of the cell lawn in 150 μl of Laemmli 2× buffer+1% DTT (10 mM) by scraping.
(§7) Electrophoresis of the proteins is performed in a polyacrylamide minigel 1 mm to […] thick, under denaturing and reducing conditions, in batch buffer according to the Laemmli method (1970). The gels containing 12% T, 2.7% C allow separation of the low molecular weight proteins ranging from 20 to 120 kDa. The gels containing 8% T; 2.7% C allow separation of the high molecular weight proteins from 35 to 250 kDa.
(§8) Next, this membrane is placed in contact with the primary antibody diluted to the optimum concentration in PBS-T with or without 5% milk (m/v) depending on the antibody, for 1 hour with stirring at room temperature or overnight at 4° C.
Under the action of peroxidase and an amplifier, the luminol is oxidized and goes into a transient excited state. Return to the ground state takes place by emission of photons, which strike an autoradiography film placed on the membrane.
(§9) The bands are quantified by means of the Gels Analysts 3.01 software.
Starting with cell extracts of MNT-1 melanocytes cultured under these various conditions, with the protocols defined in the “Materials and methods” section, the effects of the extracts of the alga Phaeodactylum tricornutum on the amount of tyrosinase and of its activity were characterized.

[2] = molecular target: T1, proteasome (post-glutamic hydrolase activity) of MNT1 cells (Homo sapiens, UniProt P28072); assay: Proteasome LLE (post-glutamic hydrolase) activity assay on lyzates of treated MNT1 cells; type: cell-based; conditions: for Proteasome activity at 72 hours, Post-glutamic hydrolase: MNT1 cells lyzed 72 hours after treatment, palmitic or linoleic acid 25 μM, Phaeodactylum 5 μg/ml, Mg132 120 nM where stated; for post-glutamic hydrolase peptidase activity of the proteasome, change in words: 72 hours after addition, MNT-1 melanocytes, FIG. 1B
T1 construct: introduce in duplicate a fixed volume of cell lyzate; endogenous in cells; host or cells: MNT1 human melanocyte line (lysate)
T1 sequence (P28072 1-239): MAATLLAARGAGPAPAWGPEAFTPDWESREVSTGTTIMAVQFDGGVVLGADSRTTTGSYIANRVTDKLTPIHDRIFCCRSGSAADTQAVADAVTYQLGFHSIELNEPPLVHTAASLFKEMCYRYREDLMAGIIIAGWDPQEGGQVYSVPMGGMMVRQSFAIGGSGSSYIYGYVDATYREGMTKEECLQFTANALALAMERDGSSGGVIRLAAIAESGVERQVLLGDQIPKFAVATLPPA
Method: 2.1 Treatment of MNT1 Cells (Human Melanocyte Cell Lines) in Order to Assay the Proteasome and Tyrosinase Activities
MNT1, 10^6 cells/dish 35 mm in diameter, in triplicate
as §3
+1% BSA+Vitamin E 50 μM+Vitamin C 1 mM • Linoleic acid 25 μM • Palmitic acid 25 μM • Phaeodactylum 5 μg/ml
Stirring with a magnetic bar at 37° C. for 1 hour • 2nd treatment on D4
+Cycloheximide 1 μg/ml (protein synthesis inhibitor)
+120 nM Mg132 for the assay of the tyrosinase activity. • Preparation of the lyzates after 4 hours
2 rinses with PBS (phosphate-buffered saline)
On a bed of ice; recovery in 150 μl of lysis buffer by scraping.
Freezing at ±20° C. • Protein assay via the Bradford method • Proteasome activity assay
The cells are rinsed twice with PBS and each peptidase activity of the proteasome is then determined by using a fluorogenic peptide substrate specific for each of the activities, in the presence and in the absence of a specific proteasome inhibitor, MG 132 (Leu-Leu-Leucinal). The peptide substrate products are the following: Leu-Leu-Val-Tyr-amc (LLVY-amc) for the chymotrypsin-like activity, Leu-Leu-Glu-na (LLE-na) for the post-glutamic hydrolase activity and Leu-Ser-Thr-Arg-amc (LSTR-amc) for the trypsin-like activity. The principle of the assay consists in monitoring over time the increase in fluorescence due to the release of the fluorophores aminomethylcoumarin or β-naphthylamine from the fluorogenic peptides.
b)—LLE Activity (Post-Glutamic Hydrolase)
The following cleavage reaction is studied: • Proteasome (LLE activity • (post-glutamic hydrolase) N-CBZ-LLE-NA→N-CBZ-LLE-+NA fluorescent
Reading on a spectrofluorimeter at an excitation wavelength of 333 nm and an emission wavelength of 410 nm.
The process is performed as follows: • In a 96-well plate, introduce in duplicate a fixed volume of cell lyzate (determined from the lowest protein concentration of the samples, which should correspond to 20 μg of protein) and make up to 100 μl with TRIS buffer. • Add 100 μl of LLE-NA substrate prediluted to 300 μM in the TRIS buffer (150 μM final). • Take the spectrofluorimeter readings at an excitation wavelength of 340 nm and an emission wavelength of 410 nm at a gain of 83 every 2 minutes, for 35 minutes.
The raw results are expressed in F.U./min.
The assay is performed on 200 μl of reaction volume containing a volume V of cell lyzate set as a function of the protein concentrations of the lyzates.
From the calibration range, the activity may be expressed in pmol of MCA released/minute/mg of protein:
For the assay of the proteasome activities, the cells were lyzed at 72 hours after the cell treatment, and the protein concentration was determined.

[3] = tested on: 20S and 26S forms of the proteasome in MNT-1 melanocyte line; assay: Anti-proteasome western blot of treated MNT1 cells; type: cell-based, human; conditions: lysis of MNT-1 24 hours and 72 hours after treatment, FIGS. 2A and 2B
Method: as §1, §2, §3, §4, §5, §6
Electrophoresis of the proteins is performed in a polyacrylamide minigel 1 mm to […] thick, under denaturing and reducing conditions, in batch buffer according to the Laemmli method (1970). […]
as §9
In parallel, using specific antibodies, the 20S and 26S forms of the proteasome were quantified by western blotting.
For the purpose of determining the cause of this activation of the peptidase activities of the proteasome, we evaluated via the western blotting technique the amount of proteasome in the homogenates obtained from the lysis of MNT-1 24 hours and 72 hours after their treatment with extracts of the alga Phaeodactylum tricornutum, with fatty acids, or with a proteasome-dependent proteolysis inhibitor Mg132).

[4] = tested on: tyrosinase in B16F10 cells; conditions: cited from earlier work; for proteasome-dependent degradation of tyrosinase: B16F10 cells, Ando H. et al., J. Biol. Chem. (2004); for amount of melanin: melanocyte culture, previous study
[5] = tested on: ubiquitin proteins in MNT-1 melanocyte line; assay: Anti-ubiquitin western blot of treated MNT1 cells; type: cell-based, human; conditions: 24 hours or 72 hours after treatment, FIG. 3A, 3B
Method: as §1, §2, §3, §4, §5, §6, §7, §8
Under the action of peroxidase and an amplifier, the luminol is oxidized and goes into a transient excited state. […]
as §9

| SMILES | amount of tyrosinase, change in words [1] | Quantification of tyrosinase at 24 hours [1] | Quantification of tyrosinase at 72 hours [1] | Proteasome activity at 72 hours, Post-glutamic hydrolase [2] [nmol/min/mg] | amount of proteasome (expression or distribution of the 20S and 26S forms) [3] | post-glutamic hydrolase peptidase activity of the proteasome, change in words [2] | proteasome-dependent degradation of tyrosinase [4] | amount of melanin [4] | level of ubiquitin proteins [5] |
| --- | --- | --- | --- | --- | --- | --- | --- | --- | --- |
| CC(C)C[C@@H](C=O)NC(=O)[C@H](CC(C)C)NC(=O)[C@H](CC(C)C)NC(=O)OCc1ccccc1 [Control + Mg132, Z-Leu-Leu-Leu-CHO] (Cbz-Leu-Leu-Leu-aldehyde) | this decrease may be reversed | 100% | 100% | 42 ± 5 | – | – | – | – | – |
| CCCCC/C=C\C/C=C\CCCCCCCC(=O)O [Linoleic acid] | significant decrease | 75% and 51% | 13% and 22% | 78 ± 3.6 | does not modify | increase and do so significantly | stimulated | decrease | not affected |
| CCCCCCCCCCCCCCCC(=O)O [Palmitic acid] | – | 135% and 127% | 62% and 88% | 54 ± 6 | – | reduced | reduced | inverse effect | – |
